Data taken from patent US20240018132A1, “5-HYDROXY-1,4-NAPHTHALENEDIONE FOR USE IN THE TREATMENT OF CANCER” (GODAVARI BIOREFINERIES LIMITED, priority 2020, published 2024).
Blank lines part the entries; values can stand above or below the compound they belong to.

Experiments:
[1] = tested on: MDAMB231; experiment: In vitro antiproliferative assay (MTT assay), breast cancer cell line; format: cell-based; settings: Homo sapiens
Description: (§1) MTT assay is a simple and sensitive assay where, metabolic reducing activity of the cells is measured. The increase of this activity in time is taken as a parameter of cell growth. If treatment with a drug impairs this increase, the action is a consequence of growth inhibition, cell killing or both. […] All cell lines were cultured in a 37° C. incubator with a 5% CO2 environment. Compounds were dissolved in DMSO with a concentration of 0.1M (stock solution). Cells were seeded into 96-well plates at suitable plating efficiency.
(§2) Following plating efficiencies were standardized for MTT assay:
(§3) In the MTT procedure, the cells were plated in 96 well plates as per predetermined plating efficiency (Table1). The plates were then incubated for 24 hrs in 5% CO2 atmosphere at 37° C. Appropriate concentrations of the drugs were then added to the plate and further incubation was carried out for 48 hrs (in 5% CO2 atmosphere at 37° C.). The assay plate was then centrifuged twice at 3000 rpm for 3 mins and supernatant was then discarded. 100 ul of MTT solution (0.5 mg/ml) was then added to each well of the plate and it was further incubated for 4 hrs (in 5% CO2 atmosphere at 37° C.) Following 4 hr incubation, the plate was then centrifuged twice, and supernatant was aspirated off very carefully. 200 ul of DMSO was then added to each well to solubilize. MTT crystals and mixed well by shaking the plate. XY graph of log percent viability was then plotted against log drug concentration.

[2] = tested on: PC3; experiment: In vitro sphere-forming assay (cancer stem cells), Prostosphere media; settings: for viability at 0.0025 µM / viability at 0.025 µM / viability at 0.25 µM / viability at 2.5 µM / viability at 25 µM: Homo sapiens, PC-3, read-out: % Viability of spheres (PC3); for 3D sphere count of PC3: Prostosphere media, 2000 cells/well, n = 6 ± S.D
[3] = tested on: MDAMB231; experiment: In vitro sphere-forming assay (cancer stem cells), Mammosphere media; settings: for viability at 0.0025 µM / viability at 0.025 µM / viability at 0.25 µM / viability at 2.5 µM / viability at 25 µM: Homo sapiens, MDA-MB-231, read-out: % Viability of spheres (MDAMB231); for 3D sphere count of MDAMB231: Mammosphere media, 2000 cells/well, n = 6 ± S.D
[4] = tested on: PC3; experiment: In vitro antiproliferative assay (MTT assay), prostate cancer cell line; format: cell-based; settings: Homo sapiens
Description: as §1, §2, §3

[5] = MDA-MB-231, 48 h, MTT assay, breast cancer MDAMB231, 48 hrs drug incubation
[6] = PC-3, 48 h, MTT assay, prostate cancer PC3, 48 hrs drug incubation
[7] = MDA-MB-231, MTT assay, MDAMB231

Compound: O=C1C(Oc2ccc(F)cc2)=CC(=O)c2c(OCCN3CCOCC3)cccc21 [Formula 75, 5-(2-morpholinoethoxy)-2-(4-fluorophenoxy) naphthalene-1,4-dione]
IC50 [1, 5]: 566 nM
viability at 0.0025 µM [2]: 82%
viability at 0.025 µM [2]: 57%
viability at 0.25 µM [2]: 47%
viability at 2.5 µM [2]: 33%
viability at 25 µM [2]: 20%
3D sphere count of PC3 ([2]; drug 0.0025 uM): 66(±4)
3D sphere count of PC3 ([2]; drug 0.025 uM): 46(±4)
3D sphere count of PC3 ([2]; drug 0.25 uM): 38(±3)
3D sphere count of PC3 ([2]; drug 2.5 uM): 27(±3)
3D sphere count of PC3 ([2]; drug 25 uM): 16(±2)
viability at 0.0025 µM [3]: 80%
viability at 0.025 µM [3]: 56%
viability at 0.25 µM [3]: 45%
viability at 2.5 µM [3]: 32%
viability at 25 µM [3]: 17%
3D sphere count of MDAMB231 ([3]; drug 0.0025 uM): 64(±3)
3D sphere count of MDAMB231 ([3]; drug 0.025 uM): 45(±3)
3D sphere count of MDAMB231 ([3]; drug 0.25 uM): 36(±4)
3D sphere count of MDAMB231 ([3]; drug 2.5 uM): 26(±3)
3D sphere count of MDAMB231 ([3]; drug 25 uM): 14(±3)
IC50 [4, 6]: 306 nM

Compound: O=C1C(Oc2ccc(F)c(F)c2)=CC(=O)c2c(OCCN3CCOCC3)cccc21 [Formula 76]
IC50 [1, 5]: 2480 nM
viability at 0.0025 µM [2]: 86%
viability at 0.025 µM [2]: 72%
viability at 0.25 µM [2]: 55%
viability at 2.5 µM [2]: 38%
viability at 25 µM [2]: 28%
3D sphere count of PC3 ([2]; drug 0.0025 uM): 69(±3)
3D sphere count of PC3 ([2]; drug 0.025 uM): 58(±4)
3D sphere count of PC3 ([2]; drug 0.25 uM): 44(±4)
3D sphere count of PC3 ([2]; drug 2.5 uM): 31(±3)
3D sphere count of PC3 ([2]; drug 25 uM): 23(±3)
viability at 0.0025 µM [3]: 82%
viability at 0.025 µM [3]: 67%
viability at 0.25 µM [3]: 56%
viability at 2.5 µM [3]: 40%
viability at 25 µM [3]: 29%
3D sphere count of MDAMB231 ([3]; drug 0.0025 uM): 74(±3)
3D sphere count of MDAMB231 ([3]; drug 0.025 uM): 61(±2)
3D sphere count of MDAMB231 ([3]; drug 0.25 uM): 51(±3)
3D sphere count of MDAMB231 ([3]; drug 2.5 uM): 36(±3)
3D sphere count of MDAMB231 ([3]; drug 25 uM): 26(±4)
IC50 [4, 6]: 324 nM

The next lines start with results.

IC50 [1, 5]: 2220 nM
IC50 [4, 6]: 269 nM
Compound: COc1ccc(OC2=CC(=O)c3c(OCCCN4CCOCC4)cccc3C2=O)cc1 [Formula 77]
viability at 0.0025 µM [2]: 80%
viability at 0.025 µM [2]: 68%
viability at 0.25 µM [2]: 51%
viability at 2.5 µM [2]: 36%
viability at 25 µM [2]: 26%
3D sphere count of PC3 ([2]; drug 0.0025 uM): 64(±3)
3D sphere count of PC3 ([2]; drug 0.025 uM): 55(±3)
3D sphere count of PC3 ([2]; drug 0.25 uM): 41(±3)
3D sphere count of PC3 ([2]; drug 2.5 uM): 29(±6)
3D sphere count of PC3 ([2]; drug 25 uM): 21(±3)
viability at 0.0025 µM [3]: 82%
viability at 0.025 µM [3]: 70%
viability at 0.25 µM [3]: 53%
viability at 2.5 µM [3]: 40%
viability at 25 µM [3]: 30%
3D sphere count of MDAMB231 ([3]; drug 0.0025 uM): 74(±4)
3D sphere count of MDAMB231 ([3]; drug 0.025 uM): 63(±5)
3D sphere count of MDAMB231 ([3]; drug 0.25 uM): 48(±3)
3D sphere count of MDAMB231 ([3]; drug 2.5 uM): 36(±4)
3D sphere count of MDAMB231 ([3]; drug 25 uM): 27(±3)

IC50 [1, 7]: 562 nM
IC50 ([4]; PC-3, MTT assay, PC3): 492 nM
Compound: COc1ccc(OC2=CC(=O)c3c(OCCN4CCCCC4)cccc3C2=O)cc1 [Formula 84]

IC50 [1, 7]: 4140 nM
IC50 ([4]; PC-3, MTT assay, PC3): 2360 nM
Compound: COc1ccc(OC2=CC(=O)c3c(OCCCCN4CCOCC4)cccc3C2=O)cc1 [Formula 85]
